Values joined by “and” are separate entries in the source; they are usually repeats but may differ in a detail not shown here. Equal values may be shown once. Read-outs that look alike come from different tables or passages of the source.
How the values were obtained:
[1] = tested on: Aspergillus niger-ATCC 9642, Penicillium funiculosum-ATCC 11797, Chaetomium globosum-ATCC 6205, Trichoderma virens-ATCC 9645, Aureobasidium pullulans-ATCC …; experiment: ASTM G21 strengthened (fungal growth on specimen, 28 days); assay type: cell-based, mold fungi (composite spore suspension); details: for ASTM G21: 0.5 pbw (B) with 0.25 pbw (C) C8-C18-alkyldimethylbenzyl ammonium chloride; for ASTM G21 strengthened rating: rigid foam A4
[2] = tested on: Penicillium funiculosum-ATCC 36839; experiment: Agar diffusion test SAN BIO 12/94; assay type: cell-based; details: polyurethane coating A5
[3] = tested on: Escherichia coli ATCC 8739; experiment: JIS Z 2801 test method (PUD coatings, 24 hours); assay type: cell-based; details: polyurethane coating A5
[4] = tested on: Aspergillus niger-ATCC 6275, Penicillium funiculosum-ATCC 36839, Chaetomium globosum-ATCC 6205, Trichoderma virens ATCC 9645, Paecilomyces varioti-ATCC 18502; experiment: EN ISO 846 A test method (PUD coatings, 28 days); assay type: cell-based, fungi (composite spore suspension); design: key: 0: No fungal growth, excellent resistance; 1: fungi visible with the microscope, sufficient resistance; 2-5: fungi visible to the naked eye, insufficient resistance; details: polyurethane coating A5
[5] = tested on: Escherichia coli ATCC 11229; experiment: JIS L 1902 test method (memory foam, 18 hours); assay type: cell-based; details: memory foam A2
[6] = memory foam A2, 0.5 pbw (B), 0 pbw (C)
[7] = 0.5 pbw (C) with 0.25 pbw (B) tetrasodium EDTA salt
[8] = 0.5 pbw (C) with 0.5 pbw (B) tetrasodium EDTA salt
[9] = memory foam A2, 0.125 pbw (C), 0 pbw (B)
[10] = memory foam A2, 0.25 pbw (C), 0 pbw (B)
[11] = memory foam A2, 0.5 pbw (C), 0 pbw (B)
[12] = memory foam A2, 1 pbw (C), 0 pbw (B)
[13] = memory foam A2, 2 pbw (C), 0 pbw (B)
[14] = memory foam A1, 0.2 pbw (B) with 0.5 pbw (C) dimethyltetradecyl(3-(trimethoxysilyl)propyl)ammonium chloride, (E) Diglyme 0.8 pbw

Compound: O=C(O)CN(CCO)CCN(CC(=O)O)CC(=O)O [N-(2-Hydroxyethyl)-ethylenediamine-N,N′,N′-triacetic acid]
- ASTM G21 ([1]; memory foam A2): 2 (10 to 30% of the surface is covered with mold fungi)
- G21 (ASTM G21 strengthened rating) [1, 6]: 3 (30 to 60% of the surface is covered with mold fungi)

Compound: CCCCCCCCCCCCCC[N+](C)(C)CCC[Si](OC)(OC)OC.[Cl-] [dimethyltetradecyl(3-(trimethoxysilyl)propyl)ammonium chloride]
- SAN BIO 12-94 fungal growth ([2]; 0.5 pbw (C), 0 pbw (B)): Full (f) (insufficient protection, sample is covered with fungi)
- Bacterial Activity R, logarithmic reduction (log R activity), JIS Z 2801 ([3]; 0.125 pbw (C) with 0.25 pbw (B) tetrasodium EDTA salt): 2.80 log R
- Bacterial Activity R, logarithmic reduction (log R activity), JIS Z 2801 ([3]; 0.125 pbw (C) with 0.5 pbw (B) tetrasodium EDTA salt): >5.10 log R
- Bacterial Activity R, logarithmic reduction (log R activity), JIS Z 2801 ([3]; 0.125 pbw (C), 0 pbw (B)): 0.10 log R
- Bacterial Activity R, logarithmic reduction (log R activity), JIS Z 2801 [3, 7]: 2.90 log R
- Bacterial Activity R, logarithmic reduction (log R activity), JIS Z 2801 [3, 8]: >5.10 log R
- Bacterial Activity R, logarithmic reduction (log R activity), JIS Z 2801 ([3]; 0.5 pbw (C), 0 pbw (B)): 0.50 log R
- G21 (ASTM G21 strengthened rating) ([1]; memory foam A1, 0.5 pbw (C), no (B), (E) Arcol Polyol 1108 1 pbw): 4 (at least 60% of the surface is covered with mold fungi)
- G21 (ASTM G21 strengthened rating) ([1]; memory foam A1, 0.5 pbw (C), no (B), (E) Diglyme 1 pbw): 4 (at least 60% of the surface is covered with mold fungi)
- G21 (ASTM G21 strengthened rating) ([1]; memory foam A1, 0.5 pbw (C), no (B), (E) Triacetin 1 pbw): 4 (at least 60% of the surface is covered with mold fungi)
- G21 (ASTM G21 strengthened rating) ([1]; memory foam A1, 0.5 pbw (C), no (B), no (E)): 3 (30 to 60% of the surface is covered with mold fungi)
- G21 (ASTM G21 strengthened rating) [1, 9]: 4 (at least 60% of the surface is covered with mold fungi)
- G21 (ASTM G21 strengthened rating) [1, 10]: 3 (30 to 60% of the surface is covered with mold fungi)
- G21 (ASTM G21 strengthened rating) [1, 11]: 0
- EN ISO 846 A rating [4, 7]: 3
- EN ISO 846 A rating [4, 8]: 1
- EN ISO 846 A rating ([4]; 0.5 pbw (C) with 1 pbw (B) tetrasodium EDTA salt): 0
- EN ISO 846 A rating ([4]; 0.5 pbw (C), 0 pbw (B)): 5
- logarithmic reduction of bacterial growth (log R), JIS L 1902 ([5]; 1 pbw (C), 0 pbw (B)): 2.7 log R
- bacterial growth (in words) ([5]; combination of (C) with (B) disodium EDTA dihydrate): absence of bacterial growth

Compound: CCCCCCCCCCCCCC[N+](C)(C)C.[Cl-] [myristyltrimethylammonium chloride]
- G21 (ASTM G21 strengthened rating) [1, 11]: 2 (10 to 30% of the surface is covered with mold fungi)
- G21 (ASTM G21 strengthened rating) [1, 12]: 0
- G21 (ASTM G21 strengthened rating) [1, 13]: 0

Compound: CCCCCCCCCCCCCCCCCC[N+](C)(C)CCC[Si](OC)(OC)OC.[Cl-] [dimethyloctadecyl(3-(trimethoxysilyl)propyl)ammonium chloride]
- G21 (ASTM G21 strengthened rating) [1, 9]: 4 (at least 60% of the surface is covered with mold fungi)
- G21 (ASTM G21 strengthened rating) [1, 10]: 3 (30 to 60% of the surface is covered with mold fungi)

Compound: CCCCCCCCCC[N+](C)(C)CCCCCCCCCC.[Cl-] [didecyldimethyl ammonium chloride]
- G21 (ASTM G21 strengthened rating) [1]: 0

Compound: CCCCCCCCCCC(=O)O [Undecanoic acid]
- G21 (ASTM G21 strengthened rating) ([1]; memory foam A1, 0.5 pbw (B) with 0.5 pbw (C) dimethyltetradecyl(3-(trimethoxysilyl)propyl)ammonium chloride, (E) Arcol Polyol 1108 0.5 pbw): 4 (at least 60% of the surface is covered with mold fungi)

Compound: C8-C18-alkyldimethylbenzyl ammonium chloride
- G21 (ASTM G21 strengthened rating) [1, 10]: 3 (30 to 60% of the surface is covered with mold fungi) and 2 (10 to 30% of the surface is covered with mold fungi)
- G21 (ASTM G21 strengthened rating) [1, 11]: 4 (at least 60% of the surface is covered with mold fungi)
- G21 (ASTM G21 strengthened rating) [1, 12]: 4 (at least 60% of the surface is covered with mold fungi)
- G21 (ASTM G21 strengthened rating) [1, 13]: 0
- ASTM G21 strengthened rating ([1]; 0.25 pbw (C), 0 pbw (B)): 3 (30 to 60% of the surface is covered with mold fungi)

Compound: O=C(O)CC(O)(CC(=O)O)C(=O)O [Citric acid]
- G21 (ASTM G21 strengthened rating) [1, 14]: 4 (at least 60% of the surface is covered with mold fungi)

Compound: O=C(O)CN(CC(=O)O)CC(=O)O [Nitrilotriacetic acid]
- G21 (ASTM G21 strengthened rating) [1, 14]: 4 (at least 60% of the surface is covered with mold fungi)

Compound: O.O.O=C([O-])CN(CCN(CC(=O)O)CC(=O)O)CC(=O)[O-].[Na+].[Na+] [disodium EDTA dihydrate, Disodium EDTA dihydrate]
- SAN BIO 12-94 fungal growth ([2]; 0.25 pbw (B), 0 pbw (C)): Full (f) (insufficient protection, sample is covered with fungi)
- SAN BIO 12-94 fungal growth ([2]; 0.5 pbw (B), 0 pbw (C)): Full (f) (insufficient protection, sample is covered with fungi)
- SAN BIO 12-94 fungal growth ([2]; 1 pbw (B), 0 pbw (C)): Full (f) (insufficient protection, sample is covered with fungi)
- G21 (ASTM G21 strengthened rating) [1, 14]: 0
- antimicrobial efficiency / protection (in words) ([1]; memory foam A1, (B) combined with (C) dimethyltetradecyl(3-(trimethoxysilyl)propyl)ammonium chloride, ASTM G21 strengthened): very good antimicrobial efficiency
- G21 (ASTM G21 strengthened rating) ([1]; memory foam A2, 0.25 pbw (B), 0 pbw (C)): 3 (30 to 60% of the surface is covered with mold fungi)
- ASTM G21 ([1]; memory foam A2): 0
- G21 (ASTM G21 strengthened rating) [1, 6]: 3 (30 to 60% of the surface is covered with mold fungi)
- G21 (ASTM G21 strengthened rating) ([1]; memory foam A2, 1 pbw (B), 0 pbw (C)): 3 (30 to 60% of the surface is covered with mold fungi)
- ASTM G21 strengthened rating ([1]; 0.5 pbw (B), 0 pbw (C)): 4 (at least 60% of the surface is covered with mold fungi)
- logarithmic reduction of bacterial growth (log R), JIS L 1902 ([5]; 0.25 pbw (B), 0 pbw (C)): 3.1 log R

Compound: O=C([O-])CN(CCN(CC(=O)[O-])CC(=O)[O-])CC(=O)[O-].[Na+].[Na+].[Na+].[Na+] [tetrasodium EDTA salt, EDTA, tetrasodium]
- Bacterial Activity R, logarithmic reduction (log R activity), JIS Z 2801 ([3]; 0.25 pbw (B), 0 pbw (C)): 0.90 log R
- Bacterial Activity R, logarithmic reduction (log R activity), JIS Z 2801 ([3]; 0.5 pbw (B), 0 pbw (C)): 3.20 log R
- G21 (ASTM G21 strengthened rating) [1]: 0
- antimicrobial efficiency / protection (in words) [1]: very good antimicrobial efficiency
- EN ISO 846 A rating ([4]; 0.25 pbw (B), 0 pbw (C)): 5
- EN ISO 846 A rating ([4]; 0.5 pbw (B), 0 pbw (C)): 5
- EN ISO 846 A rating ([4]; 1 pbw (B), 0 pbw (C)): 5

Compound: CCCCCCCCCCCCN(CCCN)CCCN [laurylamine dipropylenediamine]
- G21 (ASTM G21 strengthened rating) [1, 11]: 4 (at least 60% of the surface is covered with mold fungi)
- G21 (ASTM G21 strengthened rating) [1, 12]: 4 (at least 60% of the surface is covered with mold fungi)

From US20230128969A1, “POLYURETHANE FOAM COMPOSITIONS WITH ANTIMICROBIAL PROPERTIES” (SANITIZED AG, priority 2020, published 2023)
